Results reported in article PMC12393501, “Recruitment of Mre11 to recombination sites during meiosis” (Research Square, 2025).
Ends that are not written are not given here.

How the values were obtained:
[1] = tested on: vegetative yeast cells expressing myc-tagged Mre11; test: Immunofluorescence of MMS-induced Mre11-myc foci, vegetative nuclear spreads; type: cell-based, Saccharomyces cerevisiae; conditions: 5% 1,6-hexanediol, 4–5 minutes, vegetative spheroplasts
Method: (§1) Following standard protocols, strains were patched on YPG plates, mated and streaked on YPD plates, and selected diploid colonies grown in liquid YPD at 30°C, 250 rpm, overnight. For meiotic synchronization, diploid cultures grown overnight in YPD were transferred to YPA (1% yeast extract, 2% peptone, 1% potassium acetate) at OD600 0.2 and grown for 12–14 hours at 30°C, 250 rpm. […]
(§2) Slides were blocked with 90% FBS, 1× PBS for 1 hour at room temperature in a humid chamber and then incubated with primary antibody (mouse mAb anti-myc, 1:200 (2276S, Cell Signaling Technology), rabbit anti-phospho H2A-S129, 1:200 (ab15083, abcam)) diluted in 3% BSA, 1× PBS in a humid chamber for 2 hours at 37°C or overnight at 4°C. Slides were washed three times with 1× PBS in a Coplin jar, were incubated with secondary antibody (goat anti-mouse IgG Alexa Fluor™ Plus 488, 1:200 (A32723, Invitrogen), donkey anti-rabbit IgG Alexa Fluor™ 546, 1:200 (A10040, Invitrogen) diluted in 3% BSA, 1× PBS in a humid chamber at 37°C for 1 hour. Slides were washed in the dark three times for 5 mins with 1× PBS, mounted with Vectashield containing DAPI (Vector Labs). Images were captured on a Zeiss Axio Observer with a 100×/1.4 NA oil immersion objective and were analyzed in ImageJ.

[2] = tested on: meiotic yeast cells expressing myc-tagged Mre11; test: Immunofluorescence of Mre11-myc foci, meiotic nuclear spreads; type: cell-based, Saccharomyces cerevisiae; conditions: 5% 1,6-hexanediol, brief exposure, 4 hours after transfer to SPM
Method: as §1, §2

mre11-ΔC49 mutant = test: MMS and CPT sensitivity assay, mre11-ΔC49; type: cell-based, Saccharomyces cerevisiae; conditions: ten-fold serial dilutions on YPD plates, two days at 30°C
Method: (§3) Following standard protocols, strains were patched on YPG plates, mated and streaked on YPD plates, and selected diploid colonies grown in liquid YPD at 30°C, 250 rpm, overnight. For meiotic synchronization, diploid cultures grown overnight in YPD were transferred to YPA (1% yeast extract, 2% peptone, 1% potassium acetate) at OD600 0.2 and grown for 12–14 hours at 30°C, 250 rpm. Once the cultures reached OD600 between 1.2–1.6, cells were washed once with prewarmed sterile water and immediately transferred to sporulation medium supplemented with amino acids (320 μL amino acid complementation media for 100 mL of sporulation media (SPM)) and were kept shaking at 30°C, 250 rpm during the entire meiotic time-course. For MMS and CPT (Sigma) sensitivity assays, serial dilutions of overnight cultures were spotted on freshly prepared YPD-MMS or YPD-CPT plates containing indicated percentage of MMS or CPT, respectively. Plates were grown for two days at 30°C. For immunofluorescence of vegetatively growing cells, overnight cultures were refreshed by diluting to OD600 0.2 and grown for 3–4 hours to reach OD600 1.2–1.4 before subjecting to MMS or MMS followed by 5% 1,6-hexanediol treatment. For 5% 1,6-hexanediol treatment, cells were first converted to spheroplasts and then treated with 5% 1,6-hexanediol for 4–5 minutes. […]

mre11-ΔIDR mutants = test: MMS and CPT sensitivity assay, mre11-ΔIDR; type: cell-based, Saccharomyces cerevisiae; conditions: ten-fold serial dilutions on YPD plates, two days at 30°C
Method: as §3

Mer2 [3] = test: Colocalization of Mre11 with Mer2 condensates in vitro; type: binding, Saccharomyces cerevisiae
Method: Proteins were diluted to a 10× stock of their appropriate working concentrations in their respective storage buffers. […] Unless specified otherwise, all reactions contained 400 nM ^Alexa488Mre11 or 100 nM ^eGFPMRX. A typical 20 μL binding reaction contained 2 μL protein of 10× stock of indicated concentration, 10 μL of 2× reaction buffer, and 150 ng of supercoiled pUC19 (5.7 nM). Typical reactions were assembled at 30°C for 30 mins with gentle mixing every 5 mins, unless mentioned otherwise. 5 μL was dropped onto a microscope slide and covered with a coverslip. All images were captured on a Zeiss Axio Observer with a 100×/1.4 NA oil immersion objective except for images provided in Figure 4G which were captured on Leica Stellaris DMI 8 confocal microscope with a 63x/1.2 NA water immersion objective. Images were analyzed with ImageJ using a custom-made script. In brief, 129.24 × 129.24-μm (2048 × 2048-pixel) images were thresholded to mean intensity of the background plus three times the standard deviation of the background. Masked foci were counted and the intensity inside the focus mask was integrated. Data points represent averages of at least 8–10 images per sample. Data were analyzed using Graphpad Prism 10.4.0.

pUC19 plasmid DNA [4] = test: In vitro condensation assay, MRX complex
Method: (§4) Proteins were diluted to a 10× stock of their appropriate working concentrations in their respective storage buffers. Reactions were performed in a buffer containing 25 mM HEPES-HCl (pH 7.5), 2 mM DTT, 1 mg/ml BSA, 5% glycerol, 5 mM MgCl2, 5% PEG-3350, and NaCl. Considering the salt contributed by the protein dilution buffer, final concentration of NaCl in a reaction was adjusted to 120 mM. Unless specified otherwise, all reactions contained 400 nM ^Alexa488Mre11 or 100 nM ^eGFPMRX. A typical 20 μL binding reaction contained 2 μL protein of 10× stock of indicated concentration, 10 μL of 2× reaction buffer, and 150 ng of supercoiled pUC19 (5.7 nM). Typical reactions were assembled at 30°C for 30 mins with gentle mixing every 5 mins, unless mentioned otherwise. 5 μL was dropped onto a microscope slide and covered with a coverslip. All images were captured on a Zeiss Axio Observer with a 100×/1.4 NA oil immersion objective except for images provided in Figure 4G which were captured on Leica Stellaris DMI 8 confocal microscope with a 63x/1.2 NA water immersion objective. Images were analyzed with ImageJ using a custom-made script. In brief, 129.24 × 129.24-μm (2048 × 2048-pixel) images were thresholded to mean intensity of the background plus three times the standard deviation of the background. Masked foci were counted and the intensity inside the focus mask was integrated. Data points represent averages of at least 8–10 images per sample. Data were analyzed using Graphpad Prism 10.4.0.

pUC19 plasmid DNA [5] = test: In vitro condensation assay, Mre11; conditions: for Condensate formation: in the presence of plasmid DNA (pUC19), pH 7.5, 120 mM NaCl, 30°C, fluorescence microscopy
Method: as §4

pUC19 plasmid = test: Gel shift assay DNA binding; conditions: 1 nM pUC19, pH 7.5, 100 mM NaCl, 5 mM EDTA, 30°C for 30 mins
Method: Proteins were diluted to their appropriate working concentrations in their respective storage buffers. […] Reactions were assembled at 30°C for 30 mins and resolved in a 1% agarose (SeaKem LE Agarose, Lonza) at 60 V for 120 mins at 4°C. Gels were stained with SYBR Gold Nucleic Acid Gel Stain (S11497, Invitrogen) for 40 mins and visualized with Amersham Typhoon biomolecular imager (Cytiva).

Mer2 [6] = test: Yeast two-hybrid Mer2-Mre11 interaction; type: binding, Saccharomyces cerevisiae; conditions: SC-Leu-Ura-His + 25 mM 3-AT, 4–5 days at 30°C; at least four independent transformants
Method: Bait and prey plasmids were co-transformed into yWL365 using the standard ‘LiAc’-based transformation and plated on SC-Leu-Ura selective media. At least four independent transformants were tested for Mer2-Mre11 interaction by spotting a dilution series on SC-Leu- Ura-His + 25 mM 3-AT (3-amino-1,2,4-triazole) and growing for 4–5 days at 30°C.

Molecule: OCCCCCCO [1,6-hexanediol]
- Effect on MMS-induced Mre11 foci [1]: readily dissolved MMS-induced foci, which instead coalesced into a few aggregates of high intensity
- Effect on meiotic Mre11 foci [2]: disassembles these foci

Molecule: CC[C@@]1(O)C(=O)OCc2c1cc1n(c2=O)Cc2cc3ccccc3nc2-1 [CPT, camptothecin]
- Sensitivity of mre11-ΔC49 mutant to treatment (mre11-ΔC49 mutant): resistant
- Sensitivity of mre11-ΔIDR mutants relative to wild type (mre11-ΔIDR mutants): as resistant to MMS or CPT as wild-type cells

Molecule: COS(C)(=O)=O [MMS, methylmethanesulfonate]
- Sensitivity of mre11-ΔC49 mutant to treatment (mre11-ΔC49 mutant): resistant
- Sensitivity of mre11-ΔIDR mutants relative to wild type (mre11-ΔIDR mutants): as resistant to MMS or CPT as wild-type cells

Molecule: C-terminus of Mre11: mScarlet-labelled Mre11-C49 (SYGLLNGRKTKTKTRPAASTKTASRRGKGRASRTPKTDILGSLLAKKRK; also: mScarlet tag; UniProt P32829 644-692, looked up, fragment)
- Condensate formation of the C-terminus without Mer2 (Mer2 [3]; 800 nM mScarlet-Mre11-C49, control lacking eGFP-Mer2): does not form condensates independently
- Localization in the presence of Mer2 condensates (Mer2 [3]; 800 nM mScarlet-Mre11-C49 and 200 nM eGFP-Mer2, 30 minutes): forms a halo-like structure around Mer2 condensates

Molecule: MRX: Mre11-Rad50-Xrs2 complex with an eGFP tag at the N-terminus of Mre11
- Effect of crowding agents on condensation (pUC19 plasmid DNA [4]; 5% PEG-3350): promoted
- Role of the Mre11 C-terminal extremity in focus formation of MRX (pUC19 plasmid DNA [4]; eGFP-tagged MRX, ΔC49): required for efficient focus formation
- Condensate formation (pUC19 plasmid DNA [4]; in the presence of plasmid DNA (pUC19), pH 7.5, 120 mM NaCl, 30°C, fluorescence microscopy): form large clusters visible by fluorescence microscopy

Molecule: Mre11: Alexa488-labeled or eGFP-tagged budding yeast Mre11 nuclease
- Effect of crowding agents on condensation (pUC19 plasmid DNA [5]; 5% PEG-3350): promoted
- Effect of divalent metal ions on condensation (pUC19 plasmid DNA [5]; divalent metal ions): enhanced
- Condensate formation (pUC19 plasmid DNA [5]): form large clusters visible by fluorescence microscopy
- Concentration above which foci intensity increases steeply (pUC19 plasmid DNA [5]; protein titration, pUC19 DNA): above 200 nM
- Species of reduced electrophoretic mobility at higher protein concentration (pUC19 plasmid): formed complexes of reduced mobility at higher protein concentration
- Colocalization with Mer2 (Mer2 [3]; 200 nM Alexa594-Mer2 and eGFP-Mre11 assembled separately 10 minutes, then mixed 1:1 for 30 minutes): nearly absolute colocalization

B1: Mre11^IDR: purified eGFP-tagged Mre11 IDR alone (protein, UniProt P32829 524-677, looked up, fragment)
chain: NSVRPTPPKENDETNFAFNGNGLDSFRSSNREVRTGSPDITQSHVDNESRITHISQAESSKPTSKPKRVRTATKKKIPAFSDSTVISDAENELGDNNDAQDDVDIDENDIIMVSTDEEDASYGLLNGRKTKTKTRPAASTKTASRRGKGRASRT
modifications: IDR eGFP tag
notes: purified eGFP-tagged Mre11 IDR alone
- Condensate formation (pUC19 plasmid DNA [5]): failed to form condensates
- DNA binding compared to the WT or Mre11-ΔIDR (pUC19 plasmid): reduced DNA binding

B2: truncation of the terminal 15 amino acids of Mre11: Mre11 lacking the terminal 15 amino acids (pGAD-C1-Mre11-ΔC15) (protein)
chain: MDYPDPDTIRILITTDNHVGYNENDPITGDDSWKTFHEVMMLAKNNNVDMVVQSGDLFHVNKPSKKSLYQVLKTLRLCCMGDKPCELELLSDPSQVFHYDEFTNVNYEDPNFNISIPVFGISGNHDDASGDSLLCPMDILHATGLINHFGKVIESDKIKVVPLLFQKGSTKLALYGLAAVRDERLFRTFKDGGVTFEVPTMREGEWFNLMCVHQNHTGHTNTAFLPEQFLPDFLDMVIWGHEHECIPNLVHNPIKNFDVLQPGSSVATSLCEAEAQPKYVFILDIKYGEAPKMTPIPLETIRTFKMKSISLQDVPHLRPHDKDATSKYLIEQVEEMIRDANEETKQKLADDGEGDMVAELPKPLIRLRVDYSAPSNTQSPIDYQVENPRRFSNRFVGRVANGNNVVQFYKKRSPVTRSKKSGINGTSISDRDVEKLFSESGGELEVQTLVNDLLNKMQLSLLPEVGLNEAVKKFVDKDEKTALKEFISHEISNEVGILSTNEEFLRTDDAEEMKALIKQVKRANSVRPTPPKENDETNFAFNGNGLDSFRSSNREVRTGSPDITQSHVDNESRITHISQAESSKPTSKPKRVRTATKKKIPAFSDSTVISDAENELGDNNDAQDDVDIDENDIIMVSTDEEDASYGLLNGRKTKTKTRPAASTKTASRRGKGRASRT
modifications: left off: Gal4 activation domain (from the vector pGAD-C1), end not stated, kept
- Interaction with Mer2 (yeast two-hybrid) (Mer2 [6]): abolished the interaction with Mer2
